Laboratory results reported in patent publication US8192962B2, “Processes for detecting toxic substances” (Daikin Industries, Ltd., priority 2001, dated 2012).

System: Stress protein genes
Test: DNA chip mRNA expression in yeast, stress protein genes (Table 6)
Format: cell-based, Saccharomyces cerevisiae S288C
Method in brief: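 Untreated cultures served as reference for log-phase S288C yeast given a growth-inhibiting, non-lethal toxicant dose for 2 h at 25° C. in YPD. Gene expression was measured on a whole-genome DNA chip from Cy3/Cy5-labeled cDNA.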

Measured: The level of expressed mRNA in the presence of chemical substance/The level of expressed mRNA in the absence of chemical substance

CCCCCCCCCCCCOS(=O)(=O)[O-].[Na+] [(18), sodium lauryl sulfate]
0.9: yeast gene YFL016C | yeast gene YFL020C | yeast gene YHL046C | yeast gene YJL159W | yeast gene YJR045C
2.4: yeast gene YDR519W | yeast gene YKR053C
2.3: yeast gene YLL060C
1.4: yeast gene YDL022W | yeast gene YDL025C | yeast gene YJL158C | yeast gene YML007W | yeast gene YPL140C
1.9: yeast gene YFR052W | yeast gene YHR104W | yeast gene YKL161C
0.4: yeast gene YBR067C
2.1: yeast gene YLL039C
3.2: yeast gene YDR513W
1.1: yeast gene YDR077W | yeast gene YEL039C | yeast gene YER042W | yeast gene YKL210W | yeast gene YMR186W | yeast gene YPR005C
1.6: yeast gene YBR169C | yeast gene YOR208W
1.8: yeast gene YER057C | yeast gene YHR030C | yeast gene YJL165C | yeast gene YMR173W
0.8: yeast gene YCR021C | yeast gene YIL011W | yeast gene YKL164C | yeast gene YNR076W | yeast gene YOR009W | yeast gene YOR027W | yeast gene YPL194W
1.0: yeast gene YDR033W | yeast gene YER125W | yeast gene YJL128C | yeast gene YJR090C | yeast gene YKL163W | yeast gene YLR006C | yeast gene YLR259C | yeast gene YNL160W | yeast gene YNL241C | yeast gene YOL161C | yeast gene YPL240C
2.9: yeast gene YIR037W
0.7: yeast gene YBL075C | yeast gene YBR054W | yeast gene YNL064C
2.2: yeast gene YBR072W
2.5: yeast gene YDR155C | yeast gene YHL028W | yeast gene YLL026W
0.5: yeast gene YAL005C | yeast gene YPL106C
1.2: yeast gene YAL015C | yeast gene YDR098C | yeast gene YDR436W | yeast gene YGL073W | yeast gene YGL115W | yeast gene YIL033C | yeast gene YLR109W
1.7: yeast gene YCR060W
3.4: yeast gene YMR021C
0.6: yeast gene YEL030W | yeast gene YER103W | yeast gene YLL024C | yeast gene YOR010C
1.3: yeast gene YBL093C | yeast gene YBR044C | yeast gene YBR126C | yeast gene YCR083W | yeast gene YDR258C | yeast gene YDR293C | yeast gene YGL181W | yeast gene YHR057C | yeast gene YML070W | yeast gene YOL064C | yeast gene YOR008C | yeast gene YPL059W | yeast gene YPL223C | yeast gene YPR026W
2.0: yeast gene YGR088W | yeast gene YIR038C
4.2: yeast gene YCL035C
8.8: yeast gene YFL014W
